# Where a name gives a salt, the structure may show the parent alone.
# What was measured:
# C57BL/6J mice [1] = assay: Plasma insulin level test during OGTT; assay type: in vivo
# Method: (§1) There were 7 groups of mice, with 8 mice in each group. […] Oral glucose tolerance test (OGTT) was performed 1 hour after administration. The blood glucose level in mice was tested before administration (-60 min), before sugar administration (0 min), and at 15 min, 30 min, 60 min, and 120 min after sugar administration. In addition, 40 µl of blood was collected from the tail tip before sugar administration (0 min) and at 15 min after sugar administration to collect the plasma for an insulin level test.
# (§2) All data was transferred into an Excel document. The blood glucose results were expressed in mg/dL and expressed as MEAN ± SEM. Differences between multiple groups were analyzed using Dunnett's method in one-way analysis of variance (ANOVA) or two-way analysis of variance (ANOVA) with Graphpad Prism 8 software for comparison, and the differences were considered statistically significant when the P value was less than 0.05.
# [2] = Pharmacokinetic study in rats (IV and PO); assay type: in vivo, SD male rats
# Method: Each group was divided into 2 subgroups (intravenous bolus group (IV) and gavage group (PO)).
# Whole blood samples (about 0.2 mL per time point) were collected at pre-dose (0), 0.083, 0.25, 0.5, 1, 2, 4, 8, 12, and 24 hours post-dose by jugular vein puncture. All the blood samples were immediately transferred into labeled pre-chilled commercial microcentrifuge tubes containing 4 µL of 0.5M K2-EDTA and 10 µL of cocktail stabilizer. Samples were placed on wet ice until centrifugation (within 30 min). Plasma samples were then prepared by centrifuging the blood samples at approximately 4 °C, 3200xg for 10 minutes. Supernatant plasma was pipetted, then quickly frozen over dry ice, and then kept at -60 °C or lower temperature until LC-MS/MS analysis.
# The plasma concentrations were subjected to a non-compartmental pharmacokinetic analysis by using the WinNonlin™ software program (version 6.3).
# C57BL/6J mice [3] = assay: Oral glucose tolerance test (OGTT), glucose-lowering effect; assay type: in vivo; details: for blood glucose level at 0 min (pre-glucose): oral, 1 hour after administration, dose-response relationship; for blood glucose values after glucose administration: 60 min, and 120 min
# Method: as §1, §2
# [4] = High-temperature and high-humidity stability test of hydrochloride crystal form B; assay type: physicochemical
# [5] = Preliminary solubility test in solvents at room temperature; assay type: physicochemical
# Method: Table 10 Solubility range of the starting material sample at room temperature
# The solubility range in the corresponding solvent was calculated based on the mass of the sample and the volume of the added solvent, as shown in Table 28. The data were used as a base to guide the selection of solvent in screening tests. Table 28 Preliminary solubility of crystal form A of the free state at room temperature
# The solubility range in the corresponding solvent was calculated based on the mass of the sample and the volume of the added solvent, as shown in Table 35. The data were used as a base to guide the selection of solvent in the screening tests.
# [6] = Dynamic vapour sorption (DVS) test; assay type: physicochemical; details: relative humidity of less than or equal to 90%; listed as crystal form B of the hydrochloride
# Method: A certain amount of powder was taken and put into a sample pan, and hygroscopicity of the sample was evaluated with DVS according to the following instrument method:
# [7] = Simulated metabolic test in human intestine S9; assay type: in vitro ADME
# Method: Preparation of phosphate buffer (PB): 73.21 g of K2HPO4·3H2O (AR grade) and 10.78 g of KH2PO4 (AR grade) were dissolved in ultra-pure water to obtain a final volume of 4000 mL and a final concentration of 100 mM. The pH of the final test solution was adjusted to 7.40±0.10 with H3PO4/KOH.
# An Apricot automation workstation was used to add 50 µL/well of HIS9 solution to the corresponding wells of all reaction plates (blank, T0, T5, T15, T30, T45, T60).
# An Apricot automation workstation was used to add 48 µL/well of PB to the corresponding wells of every reaction plate (blank, T0, T5, T15, T30, T45, T60) to start the reaction.
# The reaction plates were incubated at 37 °C, and timer was started. An Apricot automation workstation was used to add 300 µL/well of stop solution (cold acetonitrile containing 200 ng/mL tolbutamide (internal standard)) to the corresponding wells of each reaction plate at the appropriate end time point to stop the reaction.
# Each plate was sealed and shaken for 10 minutes. Each plate was centrifuged at 4000 rpm and 4 °C for 20 minutes. After centrifugation, 100 µL of supernatant was transferred from each reaction plate to the corresponding analysis plate, and mixed well with 300 µL of ultra-pure water.
# Caco-2 cells = assay: Caco-2 bi-directional permeability test; details: Caco-2
# Method: (§3) Caco-2 cell culture: Caco-2 cells (purchased from American Type Culture Collection, ATCC) were inoculated on polyethylene film (PET) of a 96-well culture plate at a concentration of 1x10^5 cells/cm^2. The culture medium was replaced every 4 days until cell confluency to form cell monolayer on day 21 or 28.
# (§4) Transport test: Transport buffer used in the test was Hanks' Balanced Salt Solution (HBSS) containing 10 mM 2-[4-(2-hydroxyethyl)-1-piperazinyl] ethanesulfonic acid (HEPES) with a pH of 7.40 ± 0.05. In vitro permeability studies were performed with Nadolol, Metoprolol and Digoxin as model permeants. […] Digoxin was assessed bi-directionally with a test concentration of 10.0µM (n=2). Nadolol and Metoprolol were assessed unidirectionally both with a test concentration of 2.00 µM (n=2). The final concentration of DMSO in the incubation system was adjusted to <1%.
# [8] = Caco-2 bi-directional permeability test; details: human; for recovery at 2 h, 2 µM: Compound A concentration 2.00 µM; for recovery at 2 h, 10 µM: Compound A concentration 10.0 µM
# Method: as §3, §4
# [9] = C57BL/6J mice, versus vehicle control group
# [10] = acetone, 25 °C, organic solvent or mixture, thermodynamic from solid, room temperature
# [11] = chcl3, 25 °C, organic solvent or mixture, thermodynamic from solid, CHCl3, room temperature
# [12] = Caco-2, pH 7.4, Average recovery rate (%) A→B
# [13] = Caco-2, pH 7.4, Average recovery rate (%) B→A
compound,measurement,setting,value
"CC(C)C[C@@H](C(=O)Nc1ccn(C[C@@H](O)CO)n1)N1CC(Oc2ccccc2Cl)=CC1=O [HMS5552, (S)-2-(4-(2-chlorophenoxy)-2-oxo-2,5-dihydro-1H-pyrrol-1-yl)-N-(1-((R)-2,3-dihydroxypropyl)-1H-pyrazol-3-yl)-4-methylpentanamide, reference compound]",insulin levels at 0 min and 15 min,C57BL/6J mice [1]; each dose group of HMS5552 versus vehicle control group,"slightly higher than those in the vehicle control group, without significant difference"
same,bioavailability,"[2]; Sprague-Dawley, rat, plasma, 30 mg/kg, SD male rats, PO, analyte parent drug HMS5552",51.2%
same,blood glucose level at 0 min (pre-glucose),C57BL/6J mice [3]; [9],generally lower than that of the vehicle control group
same,blood glucose values after glucose administration,"C57BL/6J mice [3]; HMS5552-40mg/kg group, at 30 min, versus vehicle control group",significantly lower than that of the vehicle control group
CC(C)C[C@@H](C(=O)Nc1ccn(C[C@@H](O)COC(=O)c2cccnc2)n1)N1CC(Oc2ccccc2Cl)=CC1=O [Hydrochloride crystal form B],Purity (Area%),"[4]; 25 °C/75%RH, Day 2",99.72 Area%
same,Purity (Area%),"[4]; 25 °C/75%RH, Day 5",99.56 Area%
same,Purity (Area%),"[4]; 25 °C/75%RH, Day 9",99.64 Area%
same,Purity (Area%),"[4]; 40°C/75%RH, Day 2",99.67 Area%
same,Purity (Area%),"[4]; 40°C/75%RH, Day 5",99.38 Area%
same,Purity (Area%),"[4]; 40°C/75%RH, Day 9",99.33 Area%
same,Purity (Area%),"[4]; 60°C, Day 2",99.55 Area%
same,Purity (Area%),"[4]; 60°C, Day 5",99.43 Area%
same,Purity (Area%),"[4]; 60°C, Day 9",99.55 Area%
same,Purity (Area%),"[4]; 80°C, Day 2",95.20 Area%
same,Purity (Area%),"[4]; 80°C, Day 5",94.65 Area%
same,Purity (Area%),"[4]; 80°C, Day 9",96.80 Area%
same,Purity (Area%),[4]; Starting point (table 25 °C/75%RH / 40°C/75%RH),99.72 Area%
same,Purity (Area%),[4]; Starting point (table 60°C / 80°C),99.72 Area%
same,stability under the high-temperature and high-humidity conditions,[4]; compared with crystal form A of the free state,not as stable as crystal form A of the free state
same,Solubility (mg/mL),"[5]; 1,4-Dioxane, room temperature, listed as crystal form B of the hydrochloride",S<1.0 mg/mL
same,solubility,"[5]; 2-methf, 25 °C, organic solvent or mixture, thermodynamic from solid, room temperature",< 1000 µg/mL
same,Solubility (mg/mL),"[5]; DMAc, room temperature, listed as crystal form B of the hydrochloride",S>40.0 mg/mL
same,Solubility (mg/mL),"[5]; DMSO, room temperature, listed as crystal form B of the hydrochloride",S>42.0 mg/mL
same,Solubility (mg/mL),"[5]; H2O, room temperature, listed as crystal form B of the hydrochloride",S<1.0 mg/mL
same,Solubility (mg/mL),"[5]; MTBE, room temperature, listed as crystal form B of the hydrochloride",S<1.0 mg/mL
same,Solubility (mg/mL),"[5]; MeOH, room temperature (25±3 °C), listed as crystal form B of the hydrochloride",S>36.0 mg/mL
same,Solubility (mg/mL),"[5]; NMP, room temperature, listed as crystal form B of the hydrochloride",S>42.0 mg/mL
same,Solubility (mg/mL),"[5]; Toluene, room temperature, listed as crystal form B of the hydrochloride",S<1.0 mg/mL
same,solubility,[5]; [10],< 1000 µg/mL
same,solubility,"[5]; acn, 25 °C, organic solvent or mixture, thermodynamic from solid, room temperature",< 1100 µg/mL
same,solubility,"[5]; acn/h2o (1:1) v/v, room temperature",> 40000 µg/mL
same,solubility,[5]; [11],< 1100 µg/mL
same,solubility,"[5]; dcm, 25 °C, organic solvent or mixture, thermodynamic from solid, room temperature",< 1000 µg/mL
same,solubility,"[5]; dmf/h2o (1:1) v/v, room temperature",22000 to 44000 µg/mL
same,solubility,"[5]; etoac, 25 °C, organic solvent or mixture, thermodynamic from solid, room temperature",< 1000 µg/mL
same,solubility,"[5]; etoh/h2o (1:1) v/v, room temperature",22000 to 44000 µg/mL
same,solubility,"[5]; ipa, 25 °C, organic solvent or mixture, thermodynamic from solid, room temperature",< 1100 µg/mL
same,solubility,"[5]; ipa/h2o (1:1) v/v, room temperature",> 40000 µg/mL
same,solubility,"[5]; ipac, 25 °C, organic solvent or mixture, thermodynamic from solid, room temperature",< 1000 µg/mL
same,solubility,"[5]; meoh/h2o (1:1) v/v, room temperature",11000 to 22000 µg/mL
same,solubility,"[5]; mibk, 25 °C, organic solvent or mixture, thermodynamic from solid, room temperature",< 1000 µg/mL
same,Solubility (mg/mL),"[5]; n-Heptane, room temperature, listed as crystal form B of the hydrochloride",S<1.0 mg/mL
same,solubility,"[5]; thf, 25 °C, organic solvent or mixture, thermodynamic from solid, room temperature",< 1100 µg/mL
same,solubility,"[5]; thf/h2o (1:1) v/v, room temperature",20000 to 40000 µg/mL
same,moisture-induced weight gain,[6],less than 0.7%
"CC(C)C[C@@H](C(=O)Nc1ccn(C[C@@H](O)COC(=O)c2cccnc2)n1)N1CC(Oc2ccccc2Cl)=CC1=O [Compound A, (R)-3-(3-((S)-2-(4-(2-chlorophenoxy)-2-oxo-2,5-dihydro-1H-pyrrol-1-yl)-4-methylpentanamido)-1H-pyrazol-1-yl)-2-hydroxypropyl nicotinate]",time until completely metabolized and converted into the parent drug HMS5552,[7],≤ 5 min
same,insulin level at 0 min,C57BL/6J mice [1]; compound A high-dose group,significantly higher than that of the vehicle control group and the HMS5552 high-dose group
same,insulin level at 15 min,C57BL/6J mice [1]; compound A-18.4mg/kg group versus corresponding dose group of HMS5552,significantly higher than that of the corresponding dose group of HMS5552
same,insulin level at 15 min,C57BL/6J mice [1]; compound A-18.4mg/kg group versus vehicle control group,significantly higher than that of the vehicle control group
same,insulin level at 15 min,C57BL/6J mice [1]; compound A-49.1mg/kg group versus vehicle control group,significantly higher than that of the vehicle control group
same,metabolism in rats by intravenous injection,"[2]; rats, intravenous injection",metabolized very rapidly
same,Solubility (mg/mL),"[5]; 1,4-Dioxane, room temperature",S>42.0 mg/mL
same,Solubility (mg/mL),"[5]; 2-MeTHF, room temperature",S>42.0 mg/mL
same,solubility,"[5]; 2-MeTHF/n-Heptane (1:4) v/v, 25 °C, organic solvent or mixture, thermodynamic from solid, 2-MeTHF/n-Heptane (1:4) v/v, room temperature",< 1000 µg/mL
same,Solubility (mg/mL),"[5]; ACN, room temperature",S>50.0 mg/mL
same,solubility,"[5]; Cyclohexane, 25 °C, organic solvent or mixture, thermodynamic from solid, room temperature",< 1100 µg/mL
same,solubility,"[5]; DCM, 25 °C, organic solvent or mixture, thermodynamic from solid, room temperature",> 44000 µg/mL
same,solubility,"[5]; DMAc, 25 °C, organic solvent or mixture, thermodynamic from solid, room temperature",> 42000 µg/mL
same,solubility,"[5]; DMSO, 25 °C, organic solvent or mixture, thermodynamic from solid, room temperature",> 44000 µg/mL
same,Solubility (mg/mL),"[5]; EtOAc, room temperature",S>48.0 mg/mL
same,solubility,"[5]; EtOAc/n-heptane (1:4 v/v), 25 °C, organic solvent or mixture, thermodynamic from solid, EtOAc/n-Heptane (1:4) v/v, room temperature",< 1100 µg/mL
same,Solubility (mg/mL),"[5]; EtOH, room temperature",S>46.0 mg/mL
same,solubility,"[5]; EtOH/H2O (1:2) v/v, 25 °C, aqueous with cosolvent or surfactant or cyclodextrin, thermodynamic from solid, EtOH/H2O (1:2) v/v, room temperature",2100 to 5300 µg/mL
same,solubility,"[5]; H2O, 25 °C, water, thermodynamic from solid, room temperature",< 1100 µg/mL
same,Solubility (mg/mL),"[5]; IPA, room temperature",S>38.0 mg/mL
same,Solubility (mg/mL),"[5]; IPAc, room temperature",S>44.0 mg/mL
same,Solubility (mg/mL),"[5]; MIBK, room temperature",S>40.0 mg/mL
same,solubility,"[5]; MeOH, 25 °C, organic solvent or mixture, thermodynamic from solid, room temperature (25±3 °C)",> 50000 µg/mL
same,solubility,"[5]; NMP, 25 °C, organic solvent or mixture, thermodynamic from solid, room temperature",> 44000 µg/mL
same,solubility,"[5]; THF, 25 °C, organic solvent or mixture, thermodynamic from solid, room temperature",> 40000 µg/mL
same,solubility,"[5]; Toluene/n-Heptane (1:1) v/v, 25 °C, organic solvent or mixture, thermodynamic from solid, Toluene/n-Heptane (1:1) v/v, room temperature",1000 to 2000 µg/mL
same,solubility,[5]; [10],> 46000 µg/mL
same,solubility,"[5]; acetone/H2O (1:2 v/v), 25 °C, aqueous with cosolvent or surfactant or cyclodextrin, thermodynamic from solid, Acetone/H2O (1:2) v/v, room temperature",5300 to 10500 µg/mL
same,solubility,[5]; [11],> 48000 µg/mL
same,solubility,"[5]; n-Heptane, 25 °C, organic solvent or mixture, thermodynamic from solid, room temperature",< 1100 µg/mL
same,permeability from A side to B side,Caco-2 cells,low
same,permeability from B side to A side,Caco-2 cells,high
same,"recovery at 2 h, 2 µM",[8]; [12],52.9%
same,"recovery at 2 h, 10 µM",[8]; [12],37.5%
same,"recovery at 2 h, 2 µM",[8]; [13],87.1%
same,"recovery at 2 h, 10 µM",[8]; [13],81.6%
same,"recovery at 2 h, 30 µM","[8]; Caco-2, pH 7.4, Average recovery rate (%) B→A, Compound A concentration 30.0 µM",82.2%
same,glucose-lowering effect in mice,"C57BL/6J mice [3]; C57BL/6J mice, OGTT",good glucose-lowering effect
same,blood glucose level at 0 min (pre-glucose),C57BL/6J mice [3]; [9],generally lower than that of the vehicle control group
same,blood glucose values after glucose administration,"C57BL/6J mice [3]; compound A-49.1 mg/kg group, at 15 min, 30 min, versus vehicle control group",significantly lower than that of the vehicle control group
same,blood glucose values after glucose administration,"C57BL/6J mice [3]; compound A-49.1 mg/kg group, at 30 min, versus HMS5552-40mg/kg group",significantly lower than that of the HMS5552-40mg/kg group
same,AUC0-120min of OGTT blood glucose,C57BL/6J mice [3]; medium and high dose groups of compound A versus corresponding dose groups of HMS5552,significantly lower than those of the corresponding dose groups of HMS5552

# Source: patent EP4682144A1, “SOLID FORM OF PYRROLIDONE DERIVATIVE AS GLUCOKINASE ACTIVATOR” (Hua Medicine (Shanghai) Ltd., priority 2023, dated 2024)
